Laboratory results published in article PMC6402191 (Clinical and Translational Science, 2017).
Where two headings read alike, the source gives them in different places.

Key:
[1] = target: MATE2-K (Homo sapiens, UniProt Q86VL8); assay: Uptake of baricitinib into MATE2-K-transfected HEK cells; assay type: in vitro ADME
[2] = Human mass balance study of baricitinib; assay type: in vivo
[3] = target: T1, OCT1 (Homo sapiens, UniProt O15245); assay: Baricitinib substrate study in OCT1-transfected HEK-PEAK cells; assay type: in vitro ADME
T1 sequence (O15245 1-554): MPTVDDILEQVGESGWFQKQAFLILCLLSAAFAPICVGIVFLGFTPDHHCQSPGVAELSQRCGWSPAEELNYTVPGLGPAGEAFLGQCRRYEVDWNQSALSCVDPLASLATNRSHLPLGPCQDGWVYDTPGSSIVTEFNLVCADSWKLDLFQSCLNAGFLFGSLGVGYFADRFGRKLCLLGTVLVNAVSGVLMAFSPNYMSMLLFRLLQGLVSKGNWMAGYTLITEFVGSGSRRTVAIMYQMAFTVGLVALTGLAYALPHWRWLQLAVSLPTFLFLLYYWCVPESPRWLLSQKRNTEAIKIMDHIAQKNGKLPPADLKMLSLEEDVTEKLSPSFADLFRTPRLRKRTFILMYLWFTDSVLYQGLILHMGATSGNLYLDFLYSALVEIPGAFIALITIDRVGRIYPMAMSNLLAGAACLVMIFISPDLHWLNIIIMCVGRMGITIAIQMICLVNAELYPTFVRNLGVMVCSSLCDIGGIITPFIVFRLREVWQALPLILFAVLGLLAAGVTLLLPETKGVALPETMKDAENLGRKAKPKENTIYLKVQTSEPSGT

[4] = cited from earlier work
[5] = target: T2, OAT1 (Homo sapiens, UniProt Q4U2R8); assay: Baricitinib substrate study in OAT1-transfected HEK-PEAK cells; assay type: in vitro ADME
T2 sequence (Q4U2R8 1-563): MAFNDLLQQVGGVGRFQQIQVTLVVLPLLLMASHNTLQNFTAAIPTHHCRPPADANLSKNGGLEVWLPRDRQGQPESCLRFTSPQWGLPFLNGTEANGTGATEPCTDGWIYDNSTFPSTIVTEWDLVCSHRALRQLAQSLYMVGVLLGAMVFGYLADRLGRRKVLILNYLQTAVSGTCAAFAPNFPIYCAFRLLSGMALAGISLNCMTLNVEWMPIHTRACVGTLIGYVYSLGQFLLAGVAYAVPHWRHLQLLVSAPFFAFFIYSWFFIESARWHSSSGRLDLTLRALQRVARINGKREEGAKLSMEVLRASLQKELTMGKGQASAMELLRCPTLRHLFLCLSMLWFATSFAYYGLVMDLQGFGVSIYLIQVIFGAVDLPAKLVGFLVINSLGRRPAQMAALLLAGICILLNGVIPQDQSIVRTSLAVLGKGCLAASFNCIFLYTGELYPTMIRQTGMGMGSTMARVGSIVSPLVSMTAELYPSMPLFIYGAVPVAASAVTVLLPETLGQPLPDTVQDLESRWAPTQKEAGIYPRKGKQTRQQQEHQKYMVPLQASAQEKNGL

[6] = target: T3, OATP1B1 (Homo sapiens, UniProt Q9Y6L6); assay: Baricitinib substrate study in OATP1B1-transfected HEK-PEAK cells; assay type: in vitro ADME
T3 sequence (Q9Y6L6 1-691): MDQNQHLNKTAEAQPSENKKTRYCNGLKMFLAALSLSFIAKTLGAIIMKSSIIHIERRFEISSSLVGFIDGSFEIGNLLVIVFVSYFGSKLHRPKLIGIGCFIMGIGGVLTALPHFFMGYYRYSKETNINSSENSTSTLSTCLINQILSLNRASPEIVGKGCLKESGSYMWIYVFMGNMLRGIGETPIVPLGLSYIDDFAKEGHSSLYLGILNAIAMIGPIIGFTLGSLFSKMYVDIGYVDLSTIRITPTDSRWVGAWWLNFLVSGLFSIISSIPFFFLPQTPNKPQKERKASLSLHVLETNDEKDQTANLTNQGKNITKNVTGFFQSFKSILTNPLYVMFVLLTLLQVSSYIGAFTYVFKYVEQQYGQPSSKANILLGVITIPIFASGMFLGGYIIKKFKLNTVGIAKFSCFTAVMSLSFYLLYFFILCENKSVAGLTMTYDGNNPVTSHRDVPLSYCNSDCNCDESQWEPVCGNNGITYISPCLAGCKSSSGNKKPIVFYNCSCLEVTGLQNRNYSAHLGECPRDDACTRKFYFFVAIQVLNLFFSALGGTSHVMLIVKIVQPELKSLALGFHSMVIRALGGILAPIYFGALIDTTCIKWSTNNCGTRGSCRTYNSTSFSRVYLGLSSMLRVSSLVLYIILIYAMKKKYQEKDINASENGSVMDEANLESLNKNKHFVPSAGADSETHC

[7] = target: T4, MATE1 (Homo sapiens, UniProt Q96FL8); assay: Baricitinib substrate study in MATE1-transfected HEK cells; assay type: in vitro ADME
T4 sequence (Q96FL8 1-570): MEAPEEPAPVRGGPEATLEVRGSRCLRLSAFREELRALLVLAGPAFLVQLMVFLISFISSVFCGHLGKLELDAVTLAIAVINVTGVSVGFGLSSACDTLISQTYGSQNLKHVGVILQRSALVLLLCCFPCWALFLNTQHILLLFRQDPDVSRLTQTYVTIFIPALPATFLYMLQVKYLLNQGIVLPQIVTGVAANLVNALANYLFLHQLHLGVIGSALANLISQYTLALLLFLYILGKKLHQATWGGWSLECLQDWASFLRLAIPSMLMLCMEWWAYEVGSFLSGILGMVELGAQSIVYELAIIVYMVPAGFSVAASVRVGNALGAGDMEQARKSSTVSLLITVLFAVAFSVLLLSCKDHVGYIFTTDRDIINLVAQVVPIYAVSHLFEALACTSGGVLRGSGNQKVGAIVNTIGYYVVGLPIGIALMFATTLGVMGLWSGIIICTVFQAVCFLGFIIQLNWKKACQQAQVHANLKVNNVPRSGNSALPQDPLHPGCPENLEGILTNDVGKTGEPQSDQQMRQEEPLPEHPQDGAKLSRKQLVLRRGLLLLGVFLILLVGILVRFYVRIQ

MATE2-K, sequence (Q86VL8 1-566 isoform Q86VL8-3): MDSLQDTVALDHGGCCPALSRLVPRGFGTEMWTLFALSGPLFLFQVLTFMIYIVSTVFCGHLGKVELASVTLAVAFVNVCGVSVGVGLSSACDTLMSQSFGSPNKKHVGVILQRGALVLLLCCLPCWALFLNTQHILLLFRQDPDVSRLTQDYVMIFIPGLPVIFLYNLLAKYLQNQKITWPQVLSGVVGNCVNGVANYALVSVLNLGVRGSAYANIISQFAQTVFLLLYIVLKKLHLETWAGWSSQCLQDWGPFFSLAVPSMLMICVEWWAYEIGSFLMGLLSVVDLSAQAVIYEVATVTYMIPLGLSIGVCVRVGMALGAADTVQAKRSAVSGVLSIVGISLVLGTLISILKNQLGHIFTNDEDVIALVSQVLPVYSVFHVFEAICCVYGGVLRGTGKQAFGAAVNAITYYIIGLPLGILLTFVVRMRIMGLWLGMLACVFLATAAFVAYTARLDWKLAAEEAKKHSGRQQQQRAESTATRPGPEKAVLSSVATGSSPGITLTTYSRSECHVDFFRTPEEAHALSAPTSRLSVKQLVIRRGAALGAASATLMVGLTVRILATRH

## CCS(=O)(=O)N1CC(CC#N)(n2cc(-c3ncnc4[nH]ccc34)cn2)C1 [Baricitinib]
[1]
  MATE2-K substrate: substrate of MATE2‐K
  MATE2‐K Vmax: 1315 ± 129 pmol/min/mg protein
[1]; 0.5 min
  Uptake into MATE2-K cells relative to control cells: approximately three times greater
[1]; PBPK input
  MATE2‐K Vmax: 657.5 pmol/min/10^6 cells
[2]; calculated from human mass balance study
  Fa (fraction absorbed): 0.8
[2]; human, blood and plasma, oral
  blood plasma ratio: 1.26
[2]; in vivo
  dose found as parent compound in feces: 20 % of the dose
[3]
  OCT1 substrate: not a substrate
[4]
  eliminated unchanged in urine: 70 % of dose
  renal clearance: ~11 L/h
[4]; single 600 mg dose of cyclosporine
  decrease in renal secretory clearance with cyclosporine: 30%
[5]
  OAT1 substrate: not a substrate
[6]
  OATP1B1 substrate: not a substrate
[7]
  MATE1 substrate: not a substrate
